Measured values taken from patent US7223759B2, “Antibacterial 3,5-diaminopiperidine-substituted aromatic and heteroaromatic compounds” (Anadys Pharmaceuticals, Inc., priority 2003, dated 2007).
Where two headings read alike, the source gives them in different places.

Tested on: Escherichia coli (ATCC25922) or Staphylococcus aureus (ATCC25923)
Assay: Antibacterial MIC, microdilution method in Mueller-Hinton medium
Format: cell-based
Details: for MIC: Escherichia coli, 18 h, read-out: Potency (MIC)
Experimental: The antibacterial activity of the Formula I compounds was evaluated against standard bacterial strains by determining the minimal inhibitory concentration (MIC) to block growth. Each drug was assayed by the microdilution method in Mueller-Hinton medium, as recommended by the National Committee for Clinical Laboratory Standards. Approved Standard M7-A5: Methods for Dilution Antimicrobial Susceptibility Tests for Bacteria That Grow Aerobically 5th Ed. (National Committee for Clinical Laboratory Standards, Wayne, Pa., 2000). The tested bacterial strains included Escherichia coli (American Type Collection ATCC25922), Staphylococcus aureus (ATCC25923), and Pseudomonas aeruginosa (ATCC27853). Two-fold serial dilutions of each compound ranging from 64 to 0.5 μg/ml were tested in duplicate. The MIC was determined as the lowest concentration of each compound that prevented bacterial growth after 18 hours of incubation at 35° C. […] The mass of each compound in the Table was confirmed by LC-MS.

[1] = MIC in E. coli or S. aureus, two-fold serial dilutions 64 to 0.5 μg/ml in duplicate, 18 hours of incubation at 35° C.

SMILES	MIC	other results
N[C@@H]1C[C@H](N)CN(c2nc(Nc3ccc4c(c3)-c3ccccc3C4=O)nc(N3CCC[C@@H](O)C3)n2)C1 [3-[4-((3S,5R)-3,5-Diamino-piperidin-1-yl)-6-((R)-3-hydroxy-piperidin-1-yl)-[1,3,5]triazin-2-ylamino]-fluoren-9-one]	< 64 µg/mL	
N[C@@H]1C[C@H](N)CN(c2nc(Nc3ccc4c(c3)-c3ccccc3C4=O)nc(N3C[C@@H](N)C[C@@H](O)C3)n2)C1 [3-[4-((3S,5R)-3-Amino-5-hydroxy-piperidin-1-yl)-6-((3S,5R)-3,5-diamino-piperidin-1-yl)-[1,3,5]triazin-2-ylamino]-fluoren-9-one]	< 16 µg/mL	
NCCN(CCN)c1nc(Nc2ccc3c(c2)-c2ccccc2C3=O)nc(N2C[C@H](N)C[C@H](N)C2)n1 [3-[4-[Bis(2-amino-ethyl)-amino]-6-((3R,5S)-3,5-diamino-piperidin-1-yl)-[1,3,5]triazin-2-ylamino]-fluoren-9-one]	> 64 µg/mL	
NC[C@H]1[C@@H](O)CCN1c1nc(Nc2ccc(C(=O)CC(=O)Nc3ccccc3Cl)cc2)nc(N2C[C@H](N)C[C@H](N)C2)n1 [3-{4-[4-((2S,3S)-2-Aminomethyl-3-hydroxy-pyrrolidin-1-yl)-6-((3R,5S)-3,5-diamino-piperidin-1-yl)-[1,3,5]triazin-2-ylamino]-phenyl}-N-(2-chloro-phenyl)-3-oxo-propionamide]	< 64 µg/mL	
NC[C@@H]1C[C@@H](O)CN1c1nc(Nc2ccc(C(=O)CC(=O)Nc3ccc4c(c3)OC(F)(F)O4)cc2)nc(N2C[C@H](N)C[C@H](N)C2)n1 [3-{4-[4-((2S,4R)-2-Aminomethyl-4-hydroxy-pyrrolidin-1-yl)-6-((3R,5S)-3,5-diamino-piperidin-1-yl)-[1,3,5]triazin-2-ylamino]-phenyl}-N-(2,2-difluoro-benzo[1,3]dioxol-5-yl)-3-oxo-propionamide]	< 16 µg/mL	
NC[C@@H]1C[C@@H](O)CN1c1nc(Nc2ccc(C(=O)CC(=O)Nc3ccccc3Cl)cc2)nc(N2C[C@H](N)C[C@H](N)C2)n1 [3-{4-[4-((2S,4R)-2-Aminomethyl-4-hydroxy-pyrrolidin-1-yl)-6-((3R,5S)-3,5-diamino-piperidin-1-yl)-[1,3,5]triazin-2-ylamino]-phenyl}-N-(2-chloro-phenyl)-3-oxo-propionamide]	< 64 µg/mL	
NC[C@@H]1C[C@@H](O)CN1c1nc(Nc2ccc(C(=O)CC(=O)Nc3ccc(F)c(F)c3)cc2)nc(N2C[C@H](N)C[C@H](N)C2)n1 [3-{4-[4-((2S,4R)-2-Aminomethyl-4-hydroxy-pyrrolidin-1-yl)-6-((3R,5S)-3,5-diamino-piperidin-1-yl)-[1,3,5]triazin-2-ylamino]-phenyl}-N-(3,4-difluoro-phenyl)-3-oxo-propionamide]	< 64 µg/mL	
NC[C@@H]1C[C@@H](O)CN1c1nc(Nc2ccc(C(=O)CC(=O)Nc3ccc(SC(F)(F)F)cc3)cc2)nc(N2C[C@H](N)C[C@H](N)C2)n1 [3-{4-[4-((2S,4RE)-2-Aminomethyl-4-hydroxy-pyrrolidin-1-yl)-6-((3R,5S)-3,5-diamino-piperidin-1-yl)-[1,3,5]triazin-2-ylamino]-phenyl}-3-oxo-N-(4-trifluoromethylsulfanyl-phenyl)-propionamide]		Potency (MIC) [1]: ++ (++ means MIC<16 μg/ml in E. coli or S. aureus)
NC[C@@H]1C[C@H](N)CN1c1nc(Nc2ccc(C(=O)CC(=O)Nc3ccc(SC(F)(F)F)cc3)cc2)nc(N2C[C@H](N)C[C@H](N)C2)n1 [3-{4-[4-((2S,4S)-4-Amino-2-aminomethyl-pyrrolidin-1-yl)-6-((3R,5S)-3,5-diamino-piperidin-1-yl)-[1,3,5]triazin-2-ylamino]-phenyl}-3-oxo-N-(4-trifluoromethylsulfanyl-phenyl)-propionamide]	< 16 µg/mL	
NC[C@@H]1C[C@H](N)CN1c1nc(Nc2ccc(C(=O)CC(=O)Nc3ccc(F)c(F)c3)cc2)nc(N2C[C@H](N)C[C@H](N)C2)n1 [3-{4-[4-((2S,4S)-4-Amino-2-aminomethyl-pyrrolidin-1-yl)-6-((3R,5S)-3,5-diamino-piperidin-1-yl)-[1,3,5]triazin-2-ylamino]-phenyl}-N-(3,4-difluoro-phenyl)-3-oxco-propionamide]		Potency (MIC) [1]: + (+ means MIC<64 μg/ml in E. coli or S. aureus)
NC[C@@H]1C[C@H](N)CN1c1nc(Nc2ccc(C(=O)CC(=O)Nc3ccccc3Cl)cc2)nc(N2C[C@H](N)C[C@H](N)C2)n1 [3-{4-[4-((2S,4S)-4-Amino-2-aminomethyl-pyrrolidin-1-yl)-6-((3R,5S)-3,5-diamino-piperidin-1-yl)-[1,3,5]triazine-2-ylamino]-phenyl}-N-(2-chloro-phenyl)-3-oxo-propionamide]	< 64 µg/mL	
N[C@@H]1C[C@H](N)CN(c2nc(Nc3ccc(C(=O)CC(=O)Nc4ccc(SC(F)(F)F)cc4)cc3)nc(N3C[C@@H](N)C[C@H]3CO)n2)C1 [3-{4-[4-((2S,4S)-4-Amino-2-hydroxymethyl-pyrrolidin-1-yl)-6-((3R,5S)-3,5-diamino-piperidin-1-yl)-[1,3,5]triazin-2-ylamino]-phenyl}-3-oxo-N-(4-trifluoromethylsulfanyl-phenyl)-propionamide]	< 16 µg/mL	
N[C@@H]1C[C@H](N)CN(c2nc(Nc3ccc(C(=O)CC(=O)Nc4ccc5c(c4)OC(F)(F)O5)cc3)nc(N3C[C@@H](N)C[C@H]3CO)n2)C1 [3-{4-[4-((2S,4S)-4-Amino-2-hydroxymethyl-pyrrolidin-1-yl)-6-((3R,5S)-3,5-diamino-piperidin-1-yl)-[1,3,5]triazin-2-ylamino]-phenyl}-N-(2,2-difluoro-benzo[1,3]dioxol-5-yl)-3-oxo-propionamide]	< 16 µg/mL	
N[C@@H]1C[C@H](N)CN(c2nc(Nc3ccc(C(=O)CC(=O)Nc4ccccc4Cl)cc3)nc(N3C[C@@H](N)C[C@H]3CO)n2)C1 [3-{4-[4-((2S,4S)-4-Amino-2-hydroxymethyl-pyrrolidin-1-yl)-6-((3R,5S)-3,5-diamino-piperidin-1-yl)-[1,3,5]triazin-2-ylamino]-phenyl}-N-(2-chloro-phenyl)-3-oxo-propionamide]	< 64 µg/mL	
N[C@@H]1C[C@H](N)CN(c2nc(Nc3ccc(C(=O)CC(=O)Nc4ccc(F)c(F)c4)cc3)nc(N3C[C@@H](N)C[C@H]3CO)n2)C1 [3-{4-[4-((2S,4S)-4-Amino-2-hydroxymethyl-pyrrolidin-1-yl)-6-((3R,5S)-3,5-diamino-piperidin-1-yl)-[1,3,5]triazin-2-ylamino]-phenyl}-N-(3,4-difluoro-phenyl)-3-oxo-propionamide]	< 64 µg/mL	
NC[C@@H]1C[C@H](CN)CN(c2nc(Nc3ccc(C(=O)CC(=O)Nc4ccccc4Cl)cc3)nc(N3C[C@H](N)C[C@H](N)C3)n2)C1 [3-{4-[4-((3R,5S)-3,5-Bis-(aminomethyl)-piperidin-1-yl)-6-((3R,5S)-3,5-diamino-piperidin-1-yl)-[1,3,5]triazin-2-ylamino]-phenyl}-N-(2-chloro-phenyl)-3-oxo-propionamide]	< 64 µg/mL	
COc1nc(Nc2ccc(C(=O)CC(=O)Nc3ccc4c(c3)OC(F)(F)O4)cc2)nc(N2C[C@H](N)C[C@H](N)C2)n1 [3-{4-[4-((3R,5S)-3,5-Diamino-piperidin-1-yl)-6-methoxy-[1,3,5]triazin-2-ylamino]-phenyl}-N-(2,2-difluoro-benzo[1,3]dioxol-5-yl)-3-oxo-propionamide]	< 16 µg/mL	
COc1nc(Nc2ccc(C(=O)CC(=O)Nc3ccc(F)c(F)c3)cc2)nc(N2C[C@H](N)C[C@H](N)C2)n1 [3-{4-[4-((3R,5S)-3,5-Diamino-piperidin-1-yl)-6-methoxy-[1,3,5]triazin-2-ylamino]-phenyl}-N-(3,4-difluoro-phenyl)-3-oxo-propionamide]	< 16 µg/mL	
Cl.Nc1nc(N2C[C@H](N)C[C@H](N)C2)nc(N2C[C@H](N)C[C@H](N)C2)n1 [4,6-Bis-((3R,5S)-3,5-diamino-piperidin-1-yl)-[1,3,5]triazin-2-ylamine]		MIC [1]: > 64 µg/mL
N[C@@H]1C[C@H](N)CN(c2nc(Nc3ccc(NC(=O)c4ccc(Cl)cc4)c(O)c3)nc(N3CCN(CC(=O)N4CCOCC4)CC3)n2)C1 [4-Chloro-N-(4-{4-((3S,5R)-3,5-diamino-piperidin-1-yl)-6-[4-(2-morpholin-4-yl-2-oxo-ethyl)-piperazin-1-yl]-[1,3,5]triazin-2-ylamino}-2-hydroxy-phenyl)-benzamide]	> 64 µg/mL	
Cl.O=C(Nc1ccc(Nc2nc(N3CCCCC3)nc(N3CCCC3)n2)cc1O)c1ccc(Cl)cc1 [4-Chloro-N-{4-[4-((3R,5S)-3,5-diamino-piperidin-1-yl)-6-((3R,4S)-3,4-diamino-pyrrolidsin-1-yl)-[1,3,5]triazin-2-ylamino]-2-hydroxy-phenyl}-benzamide]		MIC [1]: < 64 µg/mL
COc1nc(Nc2ccc(NC(=O)c3ccc(Cl)cc3)c(O)c2)nc(N2C[C@H](N)C[C@H](N)C2)n1 [4-Chloro-N-{4-[4-((3R,5S)-3,5-diamino-piperidin-1-yl)-6-methoxy-[1,3,5]triazin-2-ylamino]-2-hydroxy-phenyl}-benzamide]	< 16 µg/mL	
N[C@@H]1C[C@H](N)CN(c2nc(Nc3ccc(NC(=O)c4ccc(Cl)cc4)c(O)c3)nc(N3CCN(c4ccncc4)CC3)n2)C1 [4-Chloro-N-{4-[4-((3S,5R)-3,5-diamino-piperidin-1-yl)-6-(4-pyridin-4-yl-piperazin-1-yl)-[1,3,5]triazin-2-ylamino]-2-hydroxy-phenyl}-benzamide]	< 64 µg/mL	
